The test system of assay [1] is B16 mouse melanoma cells. Briefly: cell viability in the B16 cell-based assay (Viability, B16 IC50). The note with it: Mus musculus, B16, B16 cells; concentration causing 50% cell death; values greater than 10 represent a lack of cell death; read-out: Viability, B16 IC50. The essentials: (§1)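 Both lines undergo the phenotypic GM3 assay, and viability is recorded from that same cell-based run.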

Assay [2] has as its system GM3 expression on the cell surface, B16 mouse melanoma cells. Briefly: cell based phenotypic assay, cell surface GM3 by antibody mediated immunofluorescence, B16 (GM3 B16 IC50). To be noted: Mus musculus, B16 mouse melanoma cells; 50% inhibition of GM3 expression on the cell surface; read-out: GM3 B16 IC50. The essentials: (§2)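 Two melanoma lines, mouse B16 and human C32, were treated and surface GM3 quantified by antibody immunofluorescence for IC50. A parallel viability readout gives the concentration killing 50% of cells, with values over 10 indicating no cell death.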

Assay [3] has as its system GM3 expression on the cell surface, C32 human melanoma cells. In words: cell based phenotypic assay, cell surface GM3 by antibody mediated immunofluorescence, C32 (GM3 C32 IC50). To be noted: Homo sapiens, C32 human melanoma cells; 50% inhibition of GM3 expression on the cell surface; read-out: GM3 C32 IC50. The essentials:
as §2

Assay [4] has as its system C32 human melanoma cells. Briefly: cell viability in the C32 cell-based assay (Viability, C32 IC50). The note with it: Homo sapiens, C32, C32 cells; concentration causing 50% cell death; values greater than 10 represent a lack of cell death; read-out: Viability, C32 IC50. The essentials:
as §1

In assay [5] the target is T1, glucosylceramide synthase (Homo sapiens, UniProt Q16739).
T1 construct: Microsomes were isolated from A375 human melanoma cells; endogenous in cells; host or cells: A375 human melanoma cells (microsomal fraction, 100,000 g pellet)
T1 sequence (Q16739 1-394): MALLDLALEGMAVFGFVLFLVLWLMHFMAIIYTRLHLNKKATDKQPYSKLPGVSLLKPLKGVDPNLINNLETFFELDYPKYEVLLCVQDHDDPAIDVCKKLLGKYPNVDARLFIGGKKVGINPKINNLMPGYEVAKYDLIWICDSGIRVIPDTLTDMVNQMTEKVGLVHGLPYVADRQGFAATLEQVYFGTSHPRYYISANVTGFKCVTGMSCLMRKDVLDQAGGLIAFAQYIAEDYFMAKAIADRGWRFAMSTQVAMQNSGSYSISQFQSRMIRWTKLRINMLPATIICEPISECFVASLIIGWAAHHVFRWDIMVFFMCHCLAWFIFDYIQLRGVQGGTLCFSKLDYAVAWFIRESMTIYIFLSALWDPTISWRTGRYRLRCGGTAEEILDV
Briefly: microsomal assay measuring conversion of ceramide to glucosylceramide by HPLC (GCS IC50). Format: biochemical. To be noted: concentration causing 50% inhibition of glucosylceramide synthase activity. The essentials: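 Microsomal preparation assayed for glucosylceramide synthase by direct HPLC measurement of ceramide conversion to glucosylceramide. GCS IC50 is the compound concentration giving 50% inhibition of enzyme activity.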

Where only a bound is given, the exact number is not on record here.

As a reminder, the IC50 is the concentration that gives 50% inhibition.

As for `CC1(NC(=O)C2(F)CCN(c3cncc(Oc4ccc(F)cc4)c3)CC2)CCN2CCC1CC2` (centres unmarked) [Example 127, 4-Fluoro-1-(5-(4-fluorophenoxy)pyridin-3-yl)-N-(4-methyl-1-azabicyclo[3.2.2]nonan-4-yl)piperidine-4-carboxamide], the IC50 in assay [1] was found to be 6980 nM; in assay [2], 106 nM; in assay [3], 0.569 nM; in assay [4], 316 nM; in assay [5], 2.27 nM.

In the case of `CC1(NC(=O)C2(F)CCN(c3ncnc(OCc4ccc(F)cc4)n3)CC2)CCN2CCC1CC2` (centres unmarked) [Example 128, 4-Fluoro-1-(4-((4-fluorobenzyl)oxy)-1,3,5-triazin-2-yl)-N-(4-methyl-1-azabicyclo[3.2.2]nonan-4-yl)piperidine-4-carboxamide], the IC50 is at least 10000 nM in assay [1]; 654 nM in assay [2]; 3.4 nM in assay [3]; 1000 nM in assay [4]; 19.8 nM in assay [5].

For `CC1(NC(=O)C2(F)CCN(c3ncc(Oc4ccc(F)cc4)cn3)CC2)CN2CCC1CC2` (centres unmarked) [Example 129, 4-Fluoro-1-(5-(4-fluorophenoxy)pyrimidin-2-yl)-N-(3-methylquinuclidin-3-yl)piperidine-4-carboxamide], the IC50 in assay [1] stood at 8260 nM; in assay [2] it was 97.8 nM; in assay [3], 0.38 nM; in assay [4] it was 316 nM; in assay [5] it was 4.27 nM.

Turning to `CC1(NC(=O)C2CCN(c3ncc(Oc4ccc(F)cc4)cn3)CC2)CCN2CCC1CC2` (centres unmarked) [Example 130, 1-(5-(4-Fluorophenoxy)pyrimidin-2-yl)-N-(4-methyl-1-azabicyclo[3.2.2]nonan-4-yl)piperidine-4-carboxamide], the IC50 in assay [1] was 5670 nM; in assay [2] it was 16.9 nM; in assay [3] it was 0.156 nM; in assay [4], 316 nM; in assay [5], 0.889 nM.

`CC1(NC(=O)C2(F)CCN(c3ncc(OCc4ccc(F)cc4)cn3)CC2)CCN2CCC1CC2` (centres unmarked) [Example 132, 4-Fluoro-1-(5-((4-fluorobenzyl)oxy)pyrimidin-2-yl)-N-(4-methyl-1-azabicyclo[3.2.2]nonan-4-yl)piperidine-4-carboxamide]: the IC50 in assay [1] came to 4590 nM; in assay [2], 115 nM; in assay [3] it was 2.65 nM; in assay [4] it was 1000 nM; in assay [5] it was 10.7 nM.

Turning to `CC1(NC(=O)C2(F)CCN(c3cnc(Oc4ccc(F)cc4)cn3)CC2)CN2CCC1CC2` (centres unmarked) [Example 133, 4-Fluoro-1-(5-(4-fluorophenoxy)pyrazin-2-yl)-N-(3-methylquinuclidin-3-yl)piperidine-4-carboxamide], the IC50 in assay [1] was at least 10000 nM; in assay [2], 467 nM; in assay [3] it was 4.83 nM; in assay [4] it was 1000 nM; in assay [5] it was 45.9 nM.

With `CC1(NC(=O)C2(F)CCN(c3ccc(Oc4ccc(F)cc4)nn3)CC2)CCN2CCC1CC2` (centres unmarked) [Example 134, 4-Fluoro-1-(6-(4-fluorophenoxy)pyridazin-3-yl)-N-(4-methyl-1-azabicyclo[3.2.2]nonan-4-yl)piperidine-4-carboxamide], the IC50 was at least 10000 nM in assay [1]; 343 nM in assay [2]; 2.83 nM in assay [3]; 1000 nM in assay [4]; 14.5 nM in assay [5].

As to `CC1(NC(=O)C2(F)CCN(c3nccc(COc4ccc(F)cc4)n3)CC2)CN2CCC1CC2` (centres unmarked) [Example 135, 4-Fluoro-1-(4-((4-fluorophenoxy)methyl)pyrimidin-2-yl)-N-(3-methylquinuclidin-3-yl)piperidine-4-carboxamide], the IC50 in assay [1] was found to be 8250 nM; in assay [2], 31.7 nM; in assay [3], 0.132 nM; in assay [4], 46.4 nM; in assay [5] it was 1.38 nM.

Take `COCCOc1ccc(Cc2cnc(N3CCC(F)(C(=O)NC4(C)CN5CCC4CC5)CC3)nc2)cc1` (centres unmarked) [Example 136]: the IC50 in assay [1] was at least 10000 nM; in assay [2], 24.9 nM; in assay [3], 0.716 nM; in assay [4], 1000 nM; in assay [5], 7.9 nM.

Take `CC1CN(C(=O)NC2(C)CCN3CCC2CC3)CCN1c1nccc(-c2ccccc2)n1` (centres unmarked) [Example 141, 3-Methyl-N-(4-methyl-1-azabicyclo[3.2.2]nonan-4-yl)-4-(4-phenylpyrimidin-2-yl)piperazine-1-carboxamide]: the IC50 in assay [1] worked out at 4670 nM; in assay [2], 209 nM; in assay [3], 0.888 nM; in assay [4] it was 316 nM; in assay [5], 5.96 nM.

On to `CCC1CN(C(=O)NC2(C)CCN3CCC2CC3)CCN1c1nccc(-c2ccccc2)n1` (centres unmarked) [Example 142, 3-Ethyl-N-(4-methyl-1-azabicyclo[3.2.2]nonan-4-yl)-4-(4-phenylpyrimidin-2-yl)piperazine-1-carboxamide], for which the IC50 in assay [1] is 5340 nM; in assay [2], 100 nM; in assay [3], 0.861 nM; in assay [4] it was 9210 nM; in assay [5], 7.69 nM.

Consider `COCC1CN(C(=O)NC2(C)CCN3CCC2CC3)CCN1c1nccc(-c2ccccc2)n1` (centres unmarked) [Example 144, 3-(Methoxymethyl)-N-(4-methyl-1-azabicyclo[3.2.2]nonan-4-yl)-4-(4-phenylpyrimidin-2-yl)piperazine-1-carboxamide], for which the IC50 in assay [1] was at least 10000 nM; in assay [2], 529 nM; in assay [3], 6.33 nM; in assay [4] it was 1000 nM; in assay [5] it was 67.3 nM.

Consider `CC1CN(C(=O)NC2(C)CCN3CCC2CC3)CCN1c1nccc(-c2ccc(F)cc2)n1` (centres unmarked) [Example 145, 4-(4-(4-Fluorophenyl)pyrimidin-2-yl)-3-methyl-N-(4-methyl-1-azabicyclo[3.2.2]nonan-4-yl)piperazine-1-carboxamide], for which the IC50 worked out at 6980 nM in assay [1]; 76.3 nM in assay [2]; 0.507 nM in assay [3]; 316 nM in assay [4]; 8.01 nM in assay [5].

Consider `COCc1ccc(-c2nc(N3CCN(C(=O)NC4(C)CCN5CCC4CC5)CC3C(C)C)ncc2F)cc1` (centres unmarked) [Example 148, 4-(5-Fluoro-4-(4-(methoxymethyl)phenyl)pyrimidin-2-yl)-3-isopropyl-N-(4-methyl-1-azabicyclo[3.2.2]nonan-4-yl)piperazine-1-carboxamide], for which the IC50 in assay [1] turned out to be 3460 nM; in assay [2], 390 nM; in assay [3], 8.59 nM; in assay [4] it was 1000 nM; in assay [5] it was 17.4 nM.

`COCc1ccc(-c2ccnc(N3CCN(C(=O)NC4(C)CCN5CCC4CC5)CC3C(F)(F)F)n2)cc1` (centres unmarked) [Example 149, 4-(4-(4-(Methoxymethyl)phenyl)pyrimidin-2-yl)-N-(4-methyl-1-azabicyclo[3.2.2]nonan-4-yl)-3-(trifluoromethyl)piperazine-1-carboxamide]: the IC50 in assay [1] stood at 4310 nM; in assay [2] it was 279 nM; in assay [3] it was 1.5 nM; in assay [4], 1000 nM; in assay [5], 10.9 nM.

For the compound `COCc1ccc(-c2ccnc(N3CCN(C(=O)NC4(C)CCN5CCC4CC5)CC3C(F)F)n2)cc1` (centres unmarked) [Example 150, 3-(Difluoromethyl)-4-(4-(4-(methoxymethyl)phenyl)pyrimidin-2-yl)-N-(4-methyl-1-azabicyclo[3.2.2]nonan-4-yl)piperazine-1-carboxamide], the IC50 came to 5440 nM in assay [1]; 195 nM in assay [2]; 1.06 nM in assay [3]; 1000 nM in assay [4]; 23 nM in assay [5].

The record behind these values is patent US12060349B2, “Glucosylceramide synthase inhibitors” (Genzyme Corporation, priority 2012, dated 2024).
